Source: ChEMBL document CHEMBL5042510, “Structure-Guided Discovery of Aminoquinazolines as Brain-Penetrant and Selective LRRK2 Inhibitors” (J Med Chem, 2022)

Experiments:
[1] = molecular target: Leucine-rich repeat serine/threonine-protein kinase 2 (Homo sapiens, UniProt Q5S007, G2019S); assay: Inhibition of recombinant N-terminal GST-fused LRRK2 […] mutant (970 to 2527 residues) (unknown origin) preincubated with enzyme for 15 mins followed by fluorescein-labeled LRRKtide peptide substrate and ATP addition for 90 mins by TR-FRET assay
Leucine-rich repeat serine/threonine-protein kinase 2, sequence (Q5S007 whole entry G2019S, the tested form may be a part): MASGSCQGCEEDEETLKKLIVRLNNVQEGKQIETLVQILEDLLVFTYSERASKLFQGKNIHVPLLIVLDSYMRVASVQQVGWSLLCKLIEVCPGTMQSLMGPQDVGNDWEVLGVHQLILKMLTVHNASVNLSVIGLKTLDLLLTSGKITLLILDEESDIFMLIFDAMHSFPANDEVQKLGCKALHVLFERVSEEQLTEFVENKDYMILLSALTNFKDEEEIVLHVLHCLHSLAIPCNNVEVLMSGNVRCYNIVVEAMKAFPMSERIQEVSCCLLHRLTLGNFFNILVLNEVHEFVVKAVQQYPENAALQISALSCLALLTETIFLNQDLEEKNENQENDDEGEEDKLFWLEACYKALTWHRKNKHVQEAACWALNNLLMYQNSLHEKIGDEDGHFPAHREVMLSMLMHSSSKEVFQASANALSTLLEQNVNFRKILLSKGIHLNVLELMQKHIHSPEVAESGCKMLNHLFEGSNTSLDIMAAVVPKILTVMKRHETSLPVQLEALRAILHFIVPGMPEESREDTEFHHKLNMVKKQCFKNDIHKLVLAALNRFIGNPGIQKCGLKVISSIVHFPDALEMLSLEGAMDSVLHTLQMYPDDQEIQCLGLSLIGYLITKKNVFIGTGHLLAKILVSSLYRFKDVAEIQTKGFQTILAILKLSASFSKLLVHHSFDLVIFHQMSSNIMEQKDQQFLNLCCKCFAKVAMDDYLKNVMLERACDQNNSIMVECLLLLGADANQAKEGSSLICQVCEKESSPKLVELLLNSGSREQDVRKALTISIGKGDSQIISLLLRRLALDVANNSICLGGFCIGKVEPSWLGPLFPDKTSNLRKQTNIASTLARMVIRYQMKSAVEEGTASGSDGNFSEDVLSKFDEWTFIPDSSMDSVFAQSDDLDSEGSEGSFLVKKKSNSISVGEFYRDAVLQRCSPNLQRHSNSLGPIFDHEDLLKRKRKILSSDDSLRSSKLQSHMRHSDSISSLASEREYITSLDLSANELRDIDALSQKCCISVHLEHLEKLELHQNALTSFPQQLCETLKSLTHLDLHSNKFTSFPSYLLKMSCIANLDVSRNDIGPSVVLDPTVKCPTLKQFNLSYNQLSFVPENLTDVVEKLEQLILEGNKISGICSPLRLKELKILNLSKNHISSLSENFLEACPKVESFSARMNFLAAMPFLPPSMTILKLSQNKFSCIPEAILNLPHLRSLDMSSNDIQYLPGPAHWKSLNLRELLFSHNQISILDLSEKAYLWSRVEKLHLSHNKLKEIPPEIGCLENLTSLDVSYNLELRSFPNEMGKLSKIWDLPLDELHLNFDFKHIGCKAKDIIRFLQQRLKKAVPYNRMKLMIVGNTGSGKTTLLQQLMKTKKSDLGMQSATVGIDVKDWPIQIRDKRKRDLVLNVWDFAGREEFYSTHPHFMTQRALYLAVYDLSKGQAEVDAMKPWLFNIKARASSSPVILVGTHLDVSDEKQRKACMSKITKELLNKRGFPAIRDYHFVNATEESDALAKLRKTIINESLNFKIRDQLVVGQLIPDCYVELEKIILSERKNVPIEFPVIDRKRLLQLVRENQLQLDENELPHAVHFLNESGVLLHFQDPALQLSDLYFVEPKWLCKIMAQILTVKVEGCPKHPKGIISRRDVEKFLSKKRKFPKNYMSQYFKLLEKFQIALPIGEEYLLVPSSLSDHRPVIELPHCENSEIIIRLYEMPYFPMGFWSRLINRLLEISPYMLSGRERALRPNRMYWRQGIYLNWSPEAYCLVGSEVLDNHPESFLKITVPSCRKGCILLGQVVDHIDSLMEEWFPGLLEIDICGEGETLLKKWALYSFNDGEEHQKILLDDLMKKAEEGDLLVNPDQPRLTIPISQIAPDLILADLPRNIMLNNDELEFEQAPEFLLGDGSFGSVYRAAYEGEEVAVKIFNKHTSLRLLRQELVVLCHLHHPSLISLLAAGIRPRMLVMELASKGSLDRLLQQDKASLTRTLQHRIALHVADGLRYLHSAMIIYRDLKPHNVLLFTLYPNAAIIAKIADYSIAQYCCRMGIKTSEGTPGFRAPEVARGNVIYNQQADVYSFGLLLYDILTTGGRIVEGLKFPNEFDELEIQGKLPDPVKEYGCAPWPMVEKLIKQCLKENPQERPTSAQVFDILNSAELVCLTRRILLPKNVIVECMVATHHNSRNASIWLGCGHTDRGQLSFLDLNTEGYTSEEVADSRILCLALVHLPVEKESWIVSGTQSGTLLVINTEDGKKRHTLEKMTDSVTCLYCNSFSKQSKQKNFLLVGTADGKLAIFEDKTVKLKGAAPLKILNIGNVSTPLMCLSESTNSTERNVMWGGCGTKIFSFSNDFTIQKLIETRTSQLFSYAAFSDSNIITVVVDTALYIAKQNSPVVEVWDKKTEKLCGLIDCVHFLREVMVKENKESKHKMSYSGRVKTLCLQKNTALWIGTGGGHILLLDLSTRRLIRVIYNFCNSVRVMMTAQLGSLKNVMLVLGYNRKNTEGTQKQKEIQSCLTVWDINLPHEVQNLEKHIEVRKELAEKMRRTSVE

[2] = test system: Leucine-rich repeat serine/threonine-protein kinase 2 (Homo sapiens), Q5S007 [G2019S]; assay: Inhibition of LRRK2 […] mutant expressed in human SH-SY5Y cells assessed as unbound concentration required for inhibition of phosphorylation of LRRK2 at Ser935 residue incubated for 90 mins by MSD assay; format: cell-based
Leucine-rich repeat serine/threonine-protein kinase 2 (Homo sapiens), Q5S007 [G2019S], sequence (Q5S007 whole entry G2019S): as the sequence (Q5S007 whole entry G2019S, the tested form may be a part) above

rat Mdr1a (P-gp) [3] = assay: Efflux ratio of apparent permeability across basolateral to apical side over apical to basolateral side in rat Mdr1a-transfected pig LLC-PK1 cells at 0.1 to 1 uM measured after 3 hrs by LC/MS/MS analysis; format: ADME, cell-based, Sus scrofa; conditions: dose 0.1-1 µM
rat Mdr1a (P-gp) [4] = assay: Apparent permeability from apical to basolateral side in rat Mdr1a-transfected pig LLC-PK1 cells at 0.1 to 1 uM measured after 3 hrs by LC/MS/MS analysis; format: ADME, cell-based, Sus scrofa; conditions: dose 0.1-1 µM
[5] = Intrinsic clearance in human hepatocytes at 0.3 uM incubated for 90 mins by LC/MS/MS analysis; format: ADME, cell-based, Hepatocyte; conditions: read-out: CLH
[6] = Intrinsic clearance in rat hepatocytes at 0.3 uM incubated for 90 mins by LC/MS/MS analysis; format: ADME, cell-based, Hepatocyte; conditions: read-out: CLH
[7] = Total plasma clearance in Wistar Han rat at 0.1 mg/kg, iv by LC-MS/MS analysis; format: ADME, organism-based
[8] = Intrinsic clearance in Wistar Han rat at 0.1 mg/kg, iv by LC-MS/MS analysis; format: ADME, organism-based; conditions: in vivo
[9] = MRT in Wistar Han rat at 0.1 mg/kg, iv by LC-MS/MS analysis; format: ADME, organism-based; conditions: in vivo
[10] = molecular target: Voltage-gated inwardly rectifying potassium channel KCNH2 (Homo sapiens, UniProt Q12809); assay: Inhibition of human ERG by voltage clamp assay; format: toxicity
Voltage-gated inwardly rectifying potassium channel KCNH2, sequence (Q12809 whole entry): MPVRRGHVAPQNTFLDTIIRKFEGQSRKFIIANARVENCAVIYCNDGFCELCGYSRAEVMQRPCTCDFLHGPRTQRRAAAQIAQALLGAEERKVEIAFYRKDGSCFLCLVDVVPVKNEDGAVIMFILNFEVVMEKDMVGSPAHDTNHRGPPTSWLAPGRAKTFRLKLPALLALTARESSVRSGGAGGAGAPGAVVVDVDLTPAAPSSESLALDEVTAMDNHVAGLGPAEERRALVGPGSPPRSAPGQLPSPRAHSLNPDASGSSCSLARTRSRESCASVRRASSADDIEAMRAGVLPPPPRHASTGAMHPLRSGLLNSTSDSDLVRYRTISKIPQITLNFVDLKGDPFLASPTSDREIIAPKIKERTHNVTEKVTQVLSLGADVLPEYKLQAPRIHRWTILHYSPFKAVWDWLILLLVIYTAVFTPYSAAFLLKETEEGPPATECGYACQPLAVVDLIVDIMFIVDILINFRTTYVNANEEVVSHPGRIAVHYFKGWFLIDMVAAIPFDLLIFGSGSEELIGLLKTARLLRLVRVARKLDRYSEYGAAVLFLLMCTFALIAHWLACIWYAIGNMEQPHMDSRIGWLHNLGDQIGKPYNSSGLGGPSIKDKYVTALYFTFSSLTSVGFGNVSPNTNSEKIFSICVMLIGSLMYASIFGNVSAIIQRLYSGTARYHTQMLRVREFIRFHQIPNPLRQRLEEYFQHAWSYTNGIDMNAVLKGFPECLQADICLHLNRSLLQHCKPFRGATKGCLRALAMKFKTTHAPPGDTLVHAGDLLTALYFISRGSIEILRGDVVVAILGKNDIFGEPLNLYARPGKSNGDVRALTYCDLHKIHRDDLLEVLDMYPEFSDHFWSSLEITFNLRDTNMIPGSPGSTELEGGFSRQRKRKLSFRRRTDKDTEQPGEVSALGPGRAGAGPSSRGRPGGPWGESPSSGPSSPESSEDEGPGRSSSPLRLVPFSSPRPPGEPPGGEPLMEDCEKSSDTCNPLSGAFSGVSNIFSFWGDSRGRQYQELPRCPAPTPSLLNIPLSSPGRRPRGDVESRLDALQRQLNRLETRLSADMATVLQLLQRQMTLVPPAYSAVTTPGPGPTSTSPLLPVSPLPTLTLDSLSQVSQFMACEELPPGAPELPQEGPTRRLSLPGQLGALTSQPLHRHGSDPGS

[11] = Lipophilicity, logD of the compound by HPLC analysis; format: physicochemical
human MDR1 (P-gp) = assay: Efflux ratio of apparent permeability across basolateral to apical side over apical to basolateral side in human MDR1-transfected dog MDCKII-MDR1 cells at 0.1 to 1 uM measured after 3 hrs by LC/MS/MS analysis; format: ADME, cell-based, Canis lupus familiaris; conditions: MDCK-MDR1, dose 0.1-1 µM
[12] = Unbound brain-to-plasma concentration ratio in rat at 2.5 uM incubated for 4 hrs by equilibrium dialysis method; format: ADME, cell-free; conditions: brain and plasma (unbound), read-out: K(p,uu,brain)
[13] = Unbound brain-to-plasma concentration ratio in non-human primates administered orally and measured after 120 mins by LC/MS/MS analysis; format: ADME; conditions: po, read-out: K(p,uu,brain)
[14] = Total plasma clearance in Wistar Han rat at 2 mg/kg, iv by LC-MS/MS analysis; format: ADME, organism-based
[15] = Intrinsic clearance in Wistar Han rat at 2 mg/kg, iv by LC-MS/MS analysis; format: ADME, organism-based; conditions: in vivo
[16] = MRT in Wistar Han rat at 2 mg/kg, iv by LC-MS/MS analysis; format: ADME, organism-based; conditions: in vivo
[17] = Intrinsic clearance in dog hepatocytes at 0.3 uM incubated for 90 mins by LC/MS/MS analysis; format: ADME, cell-based, Canis lupus familiaris, Hepatocyte; conditions: read-out: CLH
[18] = Oral bioavailability in Wistar Han rat at 10 mg/kg by LC-MS/MS analysis; format: ADME, organism-based; conditions: in vivo
mouse Bcrp = assay: Efflux ratio of apparent permeability across basolateral to apical over apical to basolateral side in mouse Bcrp-transfected dog MDCK-II cells at 0.1 to 1 uM measured after 3 hrs by LC/MS/MS analysis; format: ADME, cell-based, Canis lupus familiaris; conditions: dose 0.1-1 µM
[19] = molecular target: Leucine-rich repeat serine/threonine-protein kinase 2 (Homo sapiens) (UniProt Q5S007); assay: Ex vivo inhibition of LRRK2 in human PBMC assessed as unbound concentration required for reduction in LRRK2 phosphorylation at Ser935 residue incubated for 90 mins by MSD assay; format: cell-based
Leucine-rich repeat serine/threonine-protein kinase 2 (Homo sapiens), sequence (Q5S007 whole entry): as the sequence (Q5S007 whole entry G2019S, the tested form may be a part) above, with S2019G counted along it

[20] = Dissociation constant, pKa of the compound; format: physicochemical

FC1CN(C2COC2)CCC1c1cc2nc(Nc3cnn(C4CC4(F)F)c3Cl)ncc2cc1Cl (configuration not stated)
IC50 [1]: < 0.6 nM | fIC50 [2]: 6.1 nM | efflux ratio at 3 h, up to 1 µM (rat Mdr1a (P-gp) [3]): 1.2 | Papp A→B at 3 h, up to 1 µM (rat Mdr1a (P-gp) [4]): 31 ×10⁻⁶ cm/s | CLint scaled at 0.3 µM [5]: 186 mL/min/kg | CLint scaled at 0.3 µM [6]: 210 mL/min/kg | clearance [7]: 20 mL/min/kg | CL [8]: 1545 mL/min/kg | MRT [9]: 2.7 h | IC50 [10]: 18.3 µM

FC(F)Cn1ncc(Nc2ncc3cc(Cl)c(C4CCN(C5COC5)CC4F)cc3n2)c1Cl (configuration not stated)
IC50 [1]: < 0.6 nM | fIC50 [2]: 7.4 nM | efflux ratio at 3 h, up to 1 µM (rat Mdr1a (P-gp) [3]): 1 | Papp A→B at 3 h, up to 1 µM (rat Mdr1a (P-gp) [4]): 33 ×10⁻⁶ cm/s | CLint scaled at 0.3 µM [5]: 212 mL/min/kg | CLint scaled at 0.3 µM [6]: 336 mL/min/kg | clearance [7]: 18 mL/min/kg | CL [8]: 755 mL/min/kg | MRT [9]: 1.8 h

Cc1c(Nc2ncc3ccc(N4C(=O)OC[C@@H]4C)cc3n2)cnn1C1CCOCC1
IC50 [1]: < 0.6 nM | fIC50 [2]: 3.2 nM | efflux ratio at 3 h, up to 1 µM (rat Mdr1a (P-gp) [3]): 35 | Papp A→B at 3 h, up to 1 µM (rat Mdr1a (P-gp) [4]): 27 ×10⁻⁶ cm/s | CLint scaled at 0.3 µM [5]: < 6 mL/min/kg | CLint scaled at 0.3 µM [6]: 17 mL/min/kg | clearance [7]: 9 mL/min/kg | CL [8]: 26 mL/min/kg | MRT [9]: 1.6 h | logD [11]: 1.4

FC1CN(C2COCC2F)CCC1c1cc2nc(Nc3cnn(C4CC4(F)F)c3Cl)ncc2cc1Cl (configuration not stated)
IC50 [1]: < 0.6 nM | fIC50 [2]: 1.9 nM | efflux ratio at 3 h, up to 1 µM (rat Mdr1a (P-gp) [3]): 1.6 | Papp A→B at 3 h, up to 1 µM (rat Mdr1a (P-gp) [4]): 23 ×10⁻⁶ cm/s | CLint scaled at 0.3 µM [5]: 720 mL/min/kg | CLint scaled at 0.3 µM [6]: 956 mL/min/kg | clearance [7]: 12 mL/min/kg | CL [8]: 2771 mL/min/kg | MRT [9]: 4.8 h | IC50 [10]: 8.6 µM

Clc1cc2cnc(Nc3cnn(C4CC4)c3Cl)nc2cc1N1CCN(C2COC2)CC1
fIC50 [2]: 71 nM | efflux ratio at 3 h, up to 1 µM (rat Mdr1a (P-gp) [3]): 0.9 | Papp A→B at 3 h, up to 1 µM (rat Mdr1a (P-gp) [4]): 33 ×10⁻⁶ cm/s | CLint scaled at 0.3 µM [5]: 63 mL/min/kg | CLint scaled at 0.3 µM [6]: 168 mL/min/kg | clearance [7]: 42 mL/min/kg | CL [8]: 1800 mL/min/kg | MRT [9]: 1.1 h | IC50 [10]: 24 µM

CNc1nc(Nc2cn(C(C)(C)C#N)nc2C)ncc1C(F)(F)F [DNL-201]
efflux ratio at 3 h, up to 1 µM (human MDR1 (P-gp)): 0.8 | Kp uu at 4 h, 2.5 µM [12]: 0.6 | Kp uu at 2 h [13]: 0.46

Cc1c(Nc2ncc3ccc(C4(C#N)CC4)cc3n2)cnn1C1CCOCC1
IC50 [1]: 0.7 nM | fIC50 [2]: 19 nM | efflux ratio at 3 h, up to 1 µM (rat Mdr1a (P-gp) [3]): 6.4 | Papp A→B at 3 h, up to 1 µM (rat Mdr1a (P-gp) [4]): 34 ×10⁻⁶ cm/s

FC1CN(C2COC2)CCC1c1cc2nc(Nc3cnn(C4CC4)c3Cl)ncc2cc1Cl (configuration not stated)
Kp uu at 4 h, 2.5 µM [12]: 0.5 | IC50 [1]: < 0.6 nM | fIC50 [2]: 4.3 nM | efflux ratio at 3 h, up to 1 µM (rat Mdr1a (P-gp) [3]): 1.3 | Papp A→B at 3 h, up to 1 µM (rat Mdr1a (P-gp) [4]): 32 ×10⁻⁶ cm/s | CLint scaled at 0.3 µM [5]: 175 mL/min/kg | CLint scaled at 0.3 µM [6]: 329 mL/min/kg | clearance [14]: 18 mL/min/kg | CL [15]: 1200 mL/min/kg | MRT [16]: 3.8 h | CLint scaled at 0.3 µM [17]: 1300 mL/min/kg | bioavailability [18]: 54% | efflux ratio at 3 h, up to 1 µM (mouse Bcrp): 1.3 | IC50 [10]: 14 µM

c1cc(C2CC2)c2nc(Nc3cnn(C4CCOCC4)c3)ncc2c1
IC50 [1]: 15 nM | fIC50 [2]: 90 nM

N#CC1(c2ccc3cnc(Nc4cnn(C5CCOCC5)c4Cl)nc3c2)CC12CC2 (configuration not stated)
IC50 [1]: < 0.08 nM | fIC50 [2]: 1.7 nM | efflux ratio at 3 h, up to 1 µM (rat Mdr1a (P-gp) [3]): 0.9 | Papp A→B at 3 h, up to 1 µM (rat Mdr1a (P-gp) [4]): 31 ×10⁻⁶ cm/s | CLint scaled at 0.3 µM [5]: 405 mL/min/kg | CLint scaled at 0.3 µM [6]: 1960 mL/min/kg

Cc1c(Nc2ncc3ccc(-c4ccn[nH]4)cc3n2)cnn1C1CCOCC1
IC50 [1]: 1.7 nM | fIC50 [2]: 114 nM

FC1CN(C2CCOC2)CCC1c1cc2nc(Nc3cnn(C4CC4(F)F)c3Cl)ncc2cc1Cl (configuration not stated)
IC50 [1]: < 0.6 nM | fIC50 [2]: 2.5 nM | CLint scaled at 0.3 µM [5]: 471 mL/min/kg | CLint scaled at 0.3 µM [6]: 2640 mL/min/kg | clearance [7]: 22 mL/min/kg | CL [8]: 2494 mL/min/kg | MRT [9]: 3.3 h | IC50 [10]: 35 µM

Cc1c(Nc2ncc3cccc(C4CC4)c3n2)cnn1C1CCOCC1
IC50 [1]: 1 nM | fIC50 [2]: 31 nM | efflux ratio at 3 h, up to 1 µM (rat Mdr1a (P-gp) [3]): 0.65 | Papp A→B at 3 h, up to 1 µM (rat Mdr1a (P-gp) [4]): 36 ×10⁻⁶ cm/s | CLint scaled at 0.3 µM [5]: 162 mL/min/kg | CLint scaled at 0.3 µM [6]: 898 mL/min/kg | clearance [7]: 34 mL/min/kg | CL [8]: 1219 mL/min/kg | MRT [9]: 0.6 h | logD [11]: 2.7

F[C@@H]1CNCC[C@H]1c1cc2nc(Nc3cnn([C@@H]4CC4(F)F)c3Cl)ncc2cc1Cl
clearance [7]: 22 mL/min/kg | CL [8]: 1890 mL/min/kg | MRT [9]: 1.8 h | IC50 [10]: 0.57 µM | fIC50 [19]: 9 nM | pKa [20]: 7.79

Cc1c(Nc2ncc3ccc(C4CCN(C5COC5)CC4)cc3n2)cnn1C1CCOCC1
IC50 [1]: 6800 nM

Clc1cc2cnc(Nc3cnn(C4CC4)c3Cl)nc2cc1C1CCN(C2COC2)CC1
IC50 [1]: < 0.6 nM | fIC50 [2]: 4.8 nM | efflux ratio at 3 h, up to 1 µM (rat Mdr1a (P-gp) [3]): 0.5 | Papp A→B at 3 h, up to 1 µM (rat Mdr1a (P-gp) [4]): 26 ×10⁻⁶ cm/s | CLint scaled at 0.3 µM [5]: 57 mL/min/kg | CLint scaled at 0.3 µM [6]: 464 mL/min/kg | clearance [7]: 19 mL/min/kg | CL [8]: 1025 mL/min/kg | MRT [9]: 1.5 h | efflux ratio at 3 h, up to 1 µM (mouse Bcrp): 0.6 | IC50 [10]: 4.6 µM

CCNc1nc(Nc2cc(F)c(C(=O)N3CCOCC3)cc2OC)ncc1C(F)(F)F
efflux ratio at 3 h, up to 1 µM (human MDR1 (P-gp)): 0.9 | Kp uu at 4 h, 2.5 µM [12]: 0.5 | Kp uu at 2 h [13]: 0.6

Cc1c(Nc2ncc3ccc(C4(C#N)CC45CC5)cc3n2)cnn1C1CCOCC1 (configuration not stated)
IC50 [1]: < 0.6 nM | fIC50 [2]: 6.9 nM | efflux ratio at 3 h, up to 1 µM (rat Mdr1a (P-gp) [3]): 7.2 | Papp A→B at 3 h, up to 1 µM (rat Mdr1a (P-gp) [4]): 34 ×10⁻⁶ cm/s
